Measurements: patent US20070281992A1, “COMBINATION OF GYRASE B INHIBITORS AND PROTEIN SYNTHESIS INHIBITORS AND USES THEREOF” (priority 2006, published 2007)
Where two headings read alike, the source gives them in different places.

Tests used:
Format in all cases: cell-based
[1] = tested on: Methicillin-Resistant Staphylococcus aureus Isolates; assay: MIC assay (NCCLS broth dilution), MRSA clinical isolates; conditions: Staphylococcus aureus
Outline: (§1)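 Staphylococcal isolates and QC strains (S. aureus ATCC 29213, E. faecalis ATCC 29212) tested by NCCLS broth dilution in Mueller Hinton II broth. Agents run as 11 two-fold serial dilutions, with novobiocin combined with tetracycline or minocycline at 2.5:1. Vancomycin was the control.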

[2] = tested on: Unconfirmed Vancomycin-intermediate Staphylococcus epidermidis Isolates; assay: MIC assay (NCCLS broth dilution), unconfirmed VISE isolates; conditions: for MIC: Staphylococcus epidermidis
Outline: as §1

[3] = tested on: Linezolid-Resistant Staphylococcus aureus Isolates; assay: MIC assay (NCCLS broth dilution), LRSA isolates; conditions: for MIC: Staphylococcus aureus
Outline: as §1

[4] = tested on: Vancomycin-intermediate Staphylococcus epidermidis Isolates; assay: MIC assay (NCCLS broth dilution), VISE isolates
Outline: as §1

CN[C@H](CC(C)C)C(=O)N[C@H]1C(=O)N[C@@H](CC(N)=O)C(=O)N[C@H]2C(=O)N[C@H]3C(=O)N[C@H](C(=O)N[C@H](C(=O)O)c4cc(O)cc(O)c4-c4cc3ccc4O)[C@H](O)c3ccc(c(Cl)c3)Oc3cc2cc(c3O[C@@H]2O[C@H](CO)[C@@H](O)[C@H](O)[C@H]2O[C@H]2C[C@](C)(N)[C@H](O)[C@H](C)O2)Oc2ccc(cc2Cl)[C@H]1O [VA, vancomycin]
MIC ([1]; read-out: Minimal Inhibitory Concentration, MRSA isolate 763, 22FEB06): 1 µg/mL
MIC ([1]; read-out: Minimal Inhibitory Concentration, MRSA isolate 765, 22FEB06): 0.5 µg/mL
MIC ([1]; read-out: Minimal Inhibitory Concentration, MRSA isolate 766, 22FEB06): 0.5 µg/mL
MIC ([1]; read-out: Minimal Inhibitory Concentration, MRSA isolate 767, 22FEB06): 0.5 µg/mL
MIC ([1]; read-out: Minimal Inhibitory Concentration, MRSA isolate 768, 22FEB06): 0.5 µg/mL
MIC ([1]; read-out: Minimal Inhibitory Concentration, MRSA isolate 769, 22FEB06): 0.5 µg/mL
MIC ([1]; read-out: Minimal Inhibitory Concentration, MRSA isolate 770, 22FEB06): 0.5 µg/mL
MIC ([1]; read-out: Minimal Inhibitory Concentration, MRSA isolate 771, 22FEB06): 1 µg/mL
MIC ([1]; read-out: Minimal Inhibitory Concentration, MRSA isolate 772, 22FEB06): 0.5 µg/mL
MIC ([1]; read-out: Minimal Inhibitory Concentration, MRSA isolate 773, 24FEB06): 0.5 µg/mL
MIC ([1]; read-out: Minimal Inhibitory Concentration, MRSA isolate 774, 24FEB06): 1 µg/mL
MIC ([1]; read-out: Minimal Inhibitory Concentration, MRSA isolate 775, 24FEB06): 1 µg/mL
MIC ([1]; read-out: Minimal Inhibitory Concentration, MRSA isolate 776, 24FEB06): 1 µg/mL
MIC ([1]; read-out: Minimal Inhibitory Concentration, MRSA isolate 777, 24FEB06): 0.5 µg/mL
MIC ([1]; read-out: Minimal Inhibitory Concentration, MRSA isolate 778, 24FEB06): 1 µg/mL
MIC ([1]; read-out: Minimal Inhibitory Concentration, MRSA isolate 886, 24FEB06): 1 µg/mL
MIC ([1]; read-out: Minimal Inhibitory Concentration, MRSA isolate 887, 24FEB06): 0.5 µg/mL
MIC ([1]; read-out: Minimal Inhibitory Concentration, MRSA isolate 888, 24FEB06): 1 µg/mL
MIC ([1]; read-out: Minimal Inhibitory Concentration, MRSA isolate 889, 24FEB06): 1 µg/mL
MIC ([1]; read-out: Minimal Inhibitory Concentration, MRSA isolate 1004, 24FEB06): 1 µg/mL
MIC ([1]; read-out: Minimal Inhibitory Concentration, MRSA isolate 1010, 22FEB06): 0.5 µg/mL
MIC ([1]; read-out: Minimal Inhibitory Concentration, MRSA isolate 1012, 22FEB06): 0.5 µg/mL
MIC ([1]; read-out: Minimal Inhibitory Concentration, MRSA isolate 1013, 22FEB06): 0.5 µg/mL
MIC ([1]; read-out: Minimal Inhibitory Concentration, MRSA isolate 1014, 22FEB06): 0.5 µg/mL
MIC ([1]; read-out: Minimal Inhibitory Concentration, MRSA isolate 1015, 22FEB06): 0.5 µg/mL
MIC ([1]; read-out: Minimal Inhibitory Concentration, MRSA isolate 1016, 22FEB06): 0.5 µg/mL
MIC ([1]; read-out: Minimal Inhibitory Concentration, MRSA isolate 1017, 22FEB06): 0.5 µg/mL
MIC ([1]; read-out: Minimal Inhibitory Concentration, MRSA isolate 1021, 22FEB06): 0.5 µg/mL
MIC ([1]; read-out: Minimal Inhibitory Concentration, MRSA isolate 1022, 22FEB06): 0.5 µg/mL
MIC ([1]; read-out: Minimal Inhibitory Concentration, MRSA isolate 1023, 22FEB06): 0.5 µg/mL
MIC ([1]; read-out: Minimal Inhibitory Concentration, MRSA isolate 1024, 22FEB06): 0.5 µg/mL
MIC ([1]; read-out: Minimal Inhibitory Concentration, MRSA isolate 1025, 22FEB06): 1 µg/mL
MIC ([1]; read-out: Minimal Inhibitory Concentration, MRSA isolate 1135, 22FEB06): 0.5 µg/mL
MIC ([1]; read-out: Minimal Inhibitory Concentration, MRSA isolate 1136, 22FEB06): 0.5 µg/mL
MIC ([1]; read-out: Minimal Inhibitory Concentration, MRSA isolate 1137, 22FEB06): 0.5 µg/mL
MIC ([1]; read-out: Minimal Inhibitory Concentration, MRSA isolate 1138, 22FEB06): 0.5 µg/mL
MIC ([1]; read-out: Minimal Inhibitory Concentration, MRSA isolate 1222, 03MAR06): 1 µg/mL
MIC ([1]; read-out: Minimal Inhibitory Concentration, MRSA isolate 1222, 24FEB06): 1 µg/mL
MIC ([1]; read-out: Minimal Inhibitory Concentration, MRSA isolate 1653, 03MAR06): 1 µg/mL
MIC ([1]; read-out: Minimal Inhibitory Concentration, MRSA isolate 1658, 03MAR06): 0.5 µg/mL
MIC ([1]; read-out: Minimal Inhibitory Concentration, MRSA isolate 1659, 03MAR06): 1 µg/mL
MIC ([1]; read-out: Minimal Inhibitory Concentration, MRSA isolate 1661, 03MAR06): 1 µg/mL
MIC ([1]; read-out: Minimal Inhibitory Concentration, MRSA isolate 1729, 03MAR06): 2 µg/mL
MIC ([1]; read-out: Minimal Inhibitory Concentration, MRSA isolate 1730, 24FEB06): 1 µg/mL
MIC ([1]; read-out: Minimal Inhibitory Concentration, MRSA isolate 2009, 24FEB06): 2 µg/mL
MIC ([1]; read-out: Minimal Inhibitory Concentration, MRSA isolate 2010, 24FEB06): 0.5 µg/mL
MIC ([1]; read-out: Minimal Inhibitory Concentration, MRSA isolate 2011, 24FEB06): 1 µg/mL
MIC Range ([2]; 3 unconfirmed VISE isolates, combinations at 2.5:1): 1 to 4 µg/mL
MIC ([2]; read-out: Minimal Inhibitory Concentration, Unconfirmed VISE isolate 2024, 09MAR06): 2 µg/mL
MIC ([2]; read-out: Minimal Inhibitory Concentration, Unconfirmed VISE isolate 2025, 09MAR06): 4 µg/mL
MIC ([2]; read-out: Minimal Inhibitory Concentration, Unconfirmed VISE isolate 2026, 03MAR06): 4 µg/mL
MIC Range ([3]; 3 LRSA isolates, combinations at 2.5:1): 0.5 to 1 µg/mL
MIC ([3]; read-out: Minimal Inhibitory Concentration, LRSA isolate 1651, 24FEB06): 0.5 µg/mL
MIC ([3]; read-out: Minimal Inhibitory Concentration, LRSA isolate 1652, 24FEB06): 1 µg/mL
MIC ([3]; read-out: Minimal Inhibitory Concentration, LRSA isolate 1725, 24FEB06): 1 µg/mL
MIC Range ([4]; 4 VISE isolates, combinations at 2.5:1): 8 µg/mL
MIC ([4]; Staphylococcus epidermidis, read-out: Minimal Inhibitory Concentration): 8 µg/mL
Minimal Inhibitory Concentration ([4]; VISE isolate 2020, 09MAR06): 8 µg/mL
Minimal Inhibitory Concentration ([4]; VISE isolate 2021, 09MAR06): 8 µg/mL
Minimal Inhibitory Concentration ([4]; VISE isolate 2023, 03MAR06): 8 µg/mL
